HELM strings list units from the 5' end as sugar, base in round brackets, then linkage (d deoxyribose, r ribose, m 2'-O-methyl, p phosphodiester). [sp] = phosphorothioate linkage
Tests used:
CTNNB1 [1] = assay: HEK293-TLR8, 100 nM ASO, then resiquimod
CTNNB1 [2] = assay: HEK293-TLR7, 100 nM ASO, then resiquimod

Row | Substance | TLR8 potentiation (NF-kB luciferase) (fold of resiquimod alone) (CTNNB1 [1]) | TLR7 signal (NF-kB luciferase) (% of resiquimod alone) (CTNNB1 [2])
1 | RNA1{m(U)[sp].m(C)[sp].m(A)[sp].m(A)[sp].m(U)[sp].d(G)[sp].d(G)[sp].d(G)[sp].d(A)[sp].d(G)[sp].d(A)[sp].d(A)[sp].d(T)[sp].d(A)[sp].d(A)[sp].m(A)[sp].m(G)[sp].m(C)[sp].m(A)[sp].m(G)}$$$$ | 3.97 | 68.9
2 | RNA1{m(C)[sp].m(G)[sp].m(U)[sp].m(G)[sp].m(U)[sp].d(C)[sp].d(T)[sp].d(G)[sp].d(G)[sp].d(A)[sp].d(A)[sp].d(G)[sp].d(C)[sp].d(T)[sp].d(T)[sp].m(C)[sp].m(C)[sp].m(U)[sp].m(U)[sp].m(U)}$$$$ | 2.89 | 67
3 | RNA1{m(U)[sp].m(C)[sp].m(C)[sp].m(A)[sp].m(U)[sp].d(C)[sp].d(C)[sp].d(C)[sp].d(T)[sp].d(T)[sp].d(C)[sp].d(C)[sp].d(T)[sp].d(G)[sp].d(T)[sp].m(U)[sp].m(U)[sp].m(A)[sp].m(G)[sp].m(U)}$$$$ | 4.57 | 96.4
4 | RNA1{m(G)[sp].m(G)[sp].m(G)[sp].m(U)[sp].m(C)[sp].d(C)[sp].d(A)[sp].d(C)[sp].d(C)[sp].d(A)[sp].d(C)[sp].d(T)[sp].d(A)[sp].d(G)[sp].d(C)[sp].m(C)[sp].m(A)[sp].m(G)[sp].m(U)[sp].m(A)}$$$$ | 1.18 | 33.5
5 | RNA1{m(G)[sp].m(C)[sp].m(G)[sp].m(U)[sp].m(G)[sp].d(T)[sp].d(C)[sp].d(T)[sp].d(G)[sp].d(G)[sp].d(A)[sp].d(A)[sp].d(G)[sp].d(C)[sp].d(T)[sp].m(U)[sp].m(C)[sp].m(C)[sp].m(U)[sp].m(U)}$$$$ | 0.91 | 40.7
6 | RNA1{m(C)[sp].m(U)[sp].m(U)[sp].m(G)[sp].m(G)[sp].d(T)[sp].d(G)[sp].d(T)[sp].d(C)[sp].d(G)[sp].d(G)[sp].d(C)[sp].d(T)[sp].d(G)[sp].d(G)[sp].m(U)[sp].m(C)[sp].m(A)[sp].m(G)[sp].m(A)}$$$$ | 2.15 | 79.8
7 | RNA1{m(G)[sp].m(C)[sp].m(C)[sp].m(C)[sp].m(A)[sp].d(T)[sp].d(C)[sp].d(C)[sp].d(A)[sp].d(T)[sp].d(G)[sp].d(A)[sp].d(G)[sp].d(G)[sp].d(T)[sp].m(C)[sp].m(C)[sp].m(U)[sp].m(G)[sp].m(G)}$$$$ | 1.46 | 31.7
8 | RNA1{m(G)[sp].m(G)[sp].m(A)[sp].m(U)[sp].m(C)[sp].d(T)[sp].d(G)[sp].d(C)[sp].d(A)[sp].d(T)[sp].d(G)[sp].d(C)[sp].d(C)[sp].d(C)[sp].d(T)[sp].m(C)[sp].m(A)[sp].m(U)[sp].m(C)[sp].m(U)}$$$$ | 1.15 | 47.9
9 | RNA1{m(G)[sp].m(G)[sp].m(C)[sp].m(C)[sp].m(A)[sp].d(T)[sp].d(C)[sp].d(T)[sp].d(C)[sp].d(T)[sp].d(G)[sp].d(C)[sp].d(T)[sp].d(T)[sp].d(C)[sp].m(U)[sp].m(U)[sp].m(G)[sp].m(G)[sp].m(U)}$$$$ | 0.82 | 35.9
10 | RNA1{m(U)[sp].m(G)[sp].m(C)[sp].m(U)[sp].m(U)[sp].d(A)[sp].d(T)[sp].d(T)[sp].d(T)[sp].d(T)[sp].d(A)[sp].d(A)[sp].d(G)[sp].d(C)[sp].d(A)[sp].m(U)[sp].m(A)[sp].m(U)[sp].m(U)[sp].m(A)}$$$$ | 2.73 | 66.4
11 | RNA1{m(U)[sp].m(C)[sp].m(A)[sp].m(A)[sp].m(A)[sp].d(G)[sp].d(T)[sp].d(A)[sp].d(T)[sp].d(A)[sp].d(T)[sp].d(A)[sp].d(C)[sp].d(C)[sp].d(T)[sp].m(G)[sp].m(U)[sp].m(U)[sp].m(U)[sp].m(U)}$$$$ | 4.27 | 64.4
12 | RNA1{m(U)[sp].m(U)[sp].m(U)[sp].m(A)[sp].m(U)[sp].d(T)[sp].d(C)[sp].d(A)[sp].d(G)[sp].d(A)[sp].d(T)[sp].d(T)[sp].d(A)[sp].d(C)[sp].d(A)[sp].m(A)[sp].m(U)[sp].m(U)[sp].m(A)[sp].m(A)}$$$$ | 3.68 | 53.4
13 | RNA1{m(A)[sp].m(C)[sp].m(C)[sp].m(C)[sp].m(A)[sp].d(C)[sp].d(T)[sp].d(T)[sp].d(G)[sp].d(G)[sp].d(C)[sp].d(A)[sp].d(G)[sp].d(A)[sp].d(C)[sp].m(C)[sp].m(A)[sp].m(U)[sp].m(C)[sp].m(A)}$$$$ | 2.74 | 65.8
14 | RNA1{m(U)[sp].m(C)[sp].m(U)[sp].m(A)[sp].m(U)[sp].d(T)[sp].d(T)[sp].d(G)[sp].d(T)[sp].d(C)[sp].d(T)[sp].d(A)[sp].d(T)[sp].d(T)[sp].d(T)[sp].m(U)[sp].m(A)[sp].m(U)[sp].m(A)[sp].m(C)}$$$$ | 4.61 | 92.8
15 | RNA1{m(A)[sp].m(C)[sp].m(U)[sp].m(G)[sp].m(C)[sp].d(A)[sp].d(T)[sp].d(T)[sp].d(C)[sp].d(T)[sp].d(G)[sp].d(G)[sp].d(G)[sp].d(C)[sp].d(C)[sp].m(A)[sp].m(U)[sp].m(C)[sp].m(U)[sp].m(C)}$$$$ | 2.96 | 73.2
16 | RNA1{m(G)[sp].m(G)[sp].m(G)[sp].m(U)[sp].m(C)[sp].d(C)[sp].d(A)[sp].d(T)[sp].d(A)[sp].d(C)[sp].d(C)[sp].d(C)[sp].d(A)[sp].d(A)[sp].d(G)[sp].m(G)[sp].m(C)[sp].m(A)[sp].m(U)[sp].m(C)}$$$$ | 1.08 | 47.6
17 | RNA1{m(C)[sp].m(U)[sp].m(C)[sp].m(U)[sp].m(U)[sp].d(G)[sp].d(A)[sp].d(A)[sp].d(G)[sp].d(C)[sp].d(A)[sp].d(T)[sp].d(C)[sp].d(G)[sp].d(T)[sp].m(A)[sp].m(U)[sp].m(C)[sp].m(A)[sp].m(C)}$$$$ | 2.71 | 93.4
18 | RNA1{m(U)[sp].m(U)[sp].m(A)[sp].m(U)[sp].m(U)[sp].d(T)[sp].d(T)[sp].d(A)[sp].d(A)[sp].d(G)[sp].d(C)[sp].d(A)[sp].d(T)[sp].d(A)[sp].d(T)[sp].m(U)[sp].m(A)[sp].m(A)[sp].m(A)[sp].m(A)}$$$$ | 2.97 | 41.5
19 | RNA1{m(U)[sp].m(A)[sp].m(U)[sp].m(U)[sp].m(U)[sp].d(T)[sp].d(A)[sp].d(A)[sp].d(G)[sp].d(C)[sp].d(A)[sp].d(T)[sp].d(A)[sp].d(T)[sp].d(T)[sp].m(A)[sp].m(A)[sp].m(A)[sp].m(A)[sp].m(A)}$$$$ | 2.61 | 62.3
20 | RNA1{m(U)[sp].m(C)[sp].m(A)[sp].m(U)[sp].m(U)[sp].d(A)[sp].d(T)[sp].d(A)[sp].d(T)[sp].d(T)[sp].d(T)[sp].d(A)[sp].d(C)[sp].d(T)[sp].d(A)[sp].m(A)[sp].m(A)[sp].m(G)[sp].m(C)[sp].m(U)}$$$$ | 4.22 | 65.5
21 | RNA1{m(U)[sp].m(U)[sp].m(C)[sp].m(A)[sp].m(A)[sp].d(T)[sp].d(G)[sp].d(G)[sp].d(G)[sp].d(A)[sp].d(G)[sp].d(A)[sp].d(A)[sp].d(T)[sp].d(A)[sp].m(A)[sp].m(A)[sp].m(G)[sp].m(C)[sp].m(A)}$$$$ | 3.03 | 32.9
22 | RNA1{m(U)[sp].m(U)[sp].m(C)[sp].m(U)[sp].m(G)[sp].d(C)[sp].d(A)[sp].d(G)[sp].d(C)[sp].d(T)[sp].d(T)[sp].d(C)[sp].d(C)[sp].d(T)[sp].d(T)[sp].m(G)[sp].m(U)[sp].m(C)[sp].m(C)[sp].m(U)}$$$$ | 4.06 | 42.7
23 | RNA1{m(G)[sp].m(U)[sp].m(C)[sp].m(C)[sp].m(A)[sp].d(A)[sp].d(G)[sp].d(A)[sp].d(T)[sp].d(C)[sp].d(A)[sp].d(G)[sp].d(C)[sp].d(A)[sp].d(G)[sp].m(U)[sp].m(C)[sp].m(U)[sp].m(C)[sp].m(A)}$$$$ | 1.96 | 32.6
24 | RNA1{m(U)[sp].m(C)[sp].m(U)[sp].m(U)[sp].m(A)[sp].d(T)[sp].d(A)[sp].d(A)[sp].d(T)[sp].d(T)[sp].d(A)[sp].d(T)[sp].d(T)[sp].d(G)[sp].d(C)[sp].m(A)[sp].m(A)[sp].m(G)[sp].m(U)[sp].m(G)}$$$$ | 4.58 | 110

From the OligoGym collection
